Laboratory results published in ChEMBL document CHEMBL1201862, “PubChem BioAssay data set” (2004).
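These data come from cells grown in 96-well plates and exposed to compound for 48 hours at five concentrations. At the GI50, growth is halved.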 The source made the active and inactive calls. Rule as the data show it: active = GI50 up to about 1.1 µM and inactive = higher.

What was measured:
Experiment in all cases: NCI-60 cell line screen, 48 h
[1] = system: CCRF-CEM
[2] = system: NCI-H226
[3] = system: MDA-MB-231
[4] = system: PC-3
[5] = system: OVCAR-8
[6] = system: COLO 205
[7] = system: SK-MEL-28
[8] = system: SK-MEL-5
[9] = system: MDA-N
[10] = system: BT-549
[11] = system: RXF 393
[12] = system: HOP-92
[13] = system: SNB-19
[14] = system: MDA-MB-435
[15] = system: NCI-H460
[16] = system: IGROV-1
[17] = system: CAKI-1
[18] = system: A549
[19] = system: MCF7

Measured: GI50

CC1=NN(C(=O)CC(=O)Nc2ccccc2Cl)C(=O)C1/N=N\c1ccc(S(=O)(=O)c2ccc(/N=N/C3C(=O)N(C(=O)CC(=O)Nc4ccccc4Cl)N=C3C)cc2)cc1 (stereo not given)
inactive: [1] > 100 µM | [2] > 100 µM | [3] 30.5 µM | [4] > 100 µM | [5] > 100 µM | [6] > 100 µM | [7] > 100 µM | [8] > 100 µM | [9] > 100 µM | [10] > 100 µM | [11] > 100 µM | [12] > 100 µM | [13] > 100 µM | [14] > 100 µM | [15] > 100 µM | [16] > 100 µM | [17] > 100 µM | [18] > 100 µM | [19] > 100 µM

C[C@@H]1CCC([C@@H](C)[C@H]2CC[C@H]3[C@@H]4CC[C@H]5C[C@@H](O)CC[C@]5(C)[C@H]4CC[C@]23C)=NC1
inactive: [1] > 41.1 µM | [2] > 29.8 µM | [3] 30 µM | [4] 10.1 µM | [5] 8.11 µM | [6] 8.15 µM | [7] 20.1 µM | [8] 7.64 µM | [9] 9.53 µM | [10] 25.6 µM | [11] 12.2 µM | [12] > 41.9 µM | [13] 10.6 µM | [14] 20.7 µM | [15] 7.62 µM | [16] 4.71 µM | [17] 12.7 µM | [18] 16.9 µM | [19] 9.04 µM

COc1ccc2c(c1)CC[C@@H]1[C@@H]2CC[C@]2(C)/C(=N/OCCN3CCCCC3)CC[C@@H]12
inactive: [1] 3.28 µM | [2] 5.43 µM | [3] 8.41 µM | [4] 4.74 µM | [5] 9.79 µM | [6] 1.55 µM | [7] 2.12 µM | [8] 2.65 µM | [9] 2.33 µM | [10] 12.8 µM | [11] 2.81 µM | [12] 3.44 µM | [13] 7.45 µM | [14] 4.56 µM | [15] 2.5 µM | [16] 1.95 µM | [17] 1.94 µM | [18] 5.35 µM | [19] 6.95 µM

CC(=O)Oc1c(OC(C)C)cc(=O)n2ccsc12
inactive: [1] 16.1 µM | [2] > 100 µM | [3] > 100 µM | [4] > 100 µM | [5] > 100 µM | [6] 30.1 µM | [7] > 100 µM | [8] 62.8 µM | [9] > 100 µM | [10] > 100 µM | [11] > 100 µM | [12] > 100 µM | [13] > 100 µM | [14] 17.3 µM | [15] > 100 µM | [16] 92.7 µM | [17] > 100 µM | [18] > 100 µM | [19] 52.6 µM

CC(C)[Si]1(C(C)C)OCC2OC(N3C(=O)NC(=O)C[C@@H]3C(O)c3ccccc3)CC2O[Si](C(C)C)(C(C)C)O1 (stereo not given in full)
inactive: [1] 2.54 µM | [2] 2.15 µM | [3] 5.86 µM | [4] 4.3 µM | [5] 6.19 µM | [6] 9.86 µM | [7] 4.51 µM | [8] 11.3 µM | [9] 4.3 µM | [10] 18.1 µM | [11] 5.27 µM | [12] 7.26 µM | [13] 9.93 µM | [14] 5.5 µM | [15] 3.03 µM | [16] 4.74 µM | [17] 15.4 µM | [18] 11.2 µM | [19] 3.92 µM
